TGI data for 15 compounds are collected here from PubChem BioAssay (NCI).

Test in all cases: NCI anticancer screen, dose series, 48 h
Test [1] relates to A498 renal.
Test [2] has as its system MDA-MB-231 breast.
The subject of test [3] is BT-549 breast.
Test [4] relates to SK-MEL-28 melanoma.
Test [5] concerns HCT-15 colon.
In test [6] the test system is MDA-N.
Test [7] has as its system M14 melanoma.
Test [8] relates to SW-620 colon.
The subject of test [9] is 786-0 renal.
Test [10] relates to DLD-1 colon.
The test system of test [11] is SNB-78 CNS.
For test [12], the system named is LXFL 529 NSCLC.
Test [13] deals with KM20L2 colon.

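Results reflect a 48-hour exposure of cells in 96-well plates to compound at five concentrations. TGI marks complete inhibition of growth.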

Regarding `Cc1ccc2c3c1[C@@H]1O[C@@H]1c1cccc(c1-3)[C@@H]1O[C@H]21`, the TGI in test [1] worked out at 43.6 µM; in [2] it was 36.2 µM; in test [3], 32.7 µM; in test [4], 23.5 µM; in test [5], 36.7 µM; in test [6] it was 30.5 µM. In test [7], this compound returned a TGI of 25.1 µM.

Take `N#Cc1c(-c2ccc(Cl)cc2)c2c([nH]c1=O)-c1cc([N+](=O)[O-])ccc1CCC2`: the TGI in test [1] is 37.7 µM; in test [2], 57.3 µM; in test [8], above 100 µM; in test [3] it was 36.3 µM; in [9], 79.9 µM; in [4], 63.6 µM. The values for the TGI in test [5], in test [6] and in test [7] were 47.6 µM, above 100 µM and 73.4 µM, respectively.

Regarding `COP(=O)(OC)[C@H](O)[C@H]1C[C@@H]1c1ccccc1`, the TGI in test [1], in test [2], in [8], in [3], in test [4] and in test [5] was above 100 µM throughout. Also, the TGI in [7] is above 100 µM.

With `NC(=O)CCSC(CC(=O)c1ccc(Cl)cc1)c1ccc(Cl)cc1` (configuration not stated), the TGI was 97.8 µM in test [1]; above 100 µM in [2]; 12.2 µM in test [8]; 80 µM in test [3]; above 100 µM in test [9]; above 100 µM in [4]. Further, the TGI in test [5] stood at 31.5 µM; in test [6], 59.8 µM; in test [7], 83.3 µM.

Turning to `O=c1[nH]c2cc([N+](=O)[O-])c(N/N=C/c3ccc(Cl)cc3Cl)c([N+](=O)[O-])c2[nH]1`, the TGI in test [1] was 48.7 µM; in test [2] it was 60.5 µM; in [8], above 100 µM; in test [3] it was above 100 µM; in test [9] it was above 100 µM; in test [4] it was above 100 µM. The TGI in test [5], in [6] and in [7] was above 100 µM each time.

`O=CN1CCC23CC(O)CCC2C1Cc1cc(Oc2nnnn2-c2ccccc2)cc(O)c13` (configuration not stated): the TGI in test [1], in test [2], in test [8], in test [3], in test [9] and in test [4] was above 100 µM in each case. Moreover, the TGI in test [5], in test [6] and in test [7] was above 100 µM in each case.

Consider `COc1ccc2c(c1)CCCc1c-2nc2ccccc2c1N`, for which the TGI in test [1] amounted to 20.8 µM; in [2] it was 19 µM; in [8] it was 29 µM; in test [3], 31 µM; in test [9] it was 18.5 µM; in [4] it was 25.5 µM. In addition, the TGI came out at 26.5 µM in test [5], 21.9 µM in test [6] and 21.1 µM in test [7].

Turning to `O=C(NC(Cc1ccc(Cl)cc1)C(=O)O)c1ccc(I)cc1` (configuration not stated), the TGI in test [1], in [8], in test [10], in test [4], in test [5] and in [11] was above 100 µM throughout.

As to `CCOC(=O)C12CC(C)=C(C)CC1CCCc1ccccc12` (configuration not stated), the TGI is 62.7 µM in test [1]; 31.5 µM in test [2]; 51.8 µM in [8]; above 100 µM in [3]; above 100 µM in [9]; 92.7 µM in [4]. Also, the TGI was 59.8 µM in test [5], 86.6 µM in [6] and above 100 µM in test [7].

With `CCCCCCCCCCCCSC(=S)c1c(C)[nH]n(CCCCCCCCCCCC)c1=O`, the TGI in test [1], in [8], in test [10], in [4], in test [5] and in test [12] was above 100 µM throughout. For the same compound, the TGI in test [11] and in [13] was above 100 µM each time.

Take `CCCC[C@H]1C(=O)O[C@H](C)[C@H](NC(=O)c2cccc(NC=O)c2OC)C(=O)O[C@@H](C)[C@@H]1OC(=O)CC(C)C` (tested in a mixture with another compound): the TGI in test [1] was determined as 22.4 µM; in test [2], 29.8 µM; in test [8], 64.3 µM; in test [3], 40.1 µM; in test [9] it was 29.3 µM; in test [4], 52.8 µM. Further, the figures for the TGI in test [5], in test [6] and in test [7] were 51.2 µM, 50.3 µM and 46.6 µM, respectively.

For the compound `COc1cc(C2C(=O)C(Cl)N2Nc2nc(C)cc(=O)[nH]2)cc(OC)c1OC` (configuration not stated), the TGI was above 100 µM in [8]; 49.6 µM in test [4]; 31.9 µM in [5]; 29.7 µM in [12]; 26.5 µM in [7]; 65.8 µM in [11]. The compound also had a TGI in [13] of 66.5 µM.

In the case of `CN1NC(c2ccccc2)=C(C#N)C(=O)CC1c1ccc(F)cc1` (configuration not stated), the TGI in test [1], in [8], in [10], in test [4], in test [5] and in [12] was above 100 µM each time. Further, in [11], the TGI was above 100 µM.

In the case of `Cn1c2cn[nH]c(=O)c2c2ccc3ccccc3c21`, the TGI in test [1] was 80 µM; in test [2], 57.6 µM; in test [8] it was above 100 µM; in test [3], above 100 µM; in test [9] it was 42.1 µM; in test [5], above 100 µM. Moreover, the TGI in test [6] and in [7] was above 100 µM in each case.

As to `COC(=O)c1ccc2c(c1)sc1nc(-c3ccc(OC)cc3)cn12`, the TGI in test [1], in test [2], in [8], in test [3], in [9] and in test [4] was above 100 µM throughout. For the same compound, the TGI in [5], in test [6] and in test [7] was above 100 µM each time.
